Values after ≈ are worked out from the molar mass of the structure shown. Like-named read-outs stand apart in the source and are kept apart here.
How the values were obtained:
[1] = test system: bloodstream form T. brucei (strain 221); experiment: Anti-trypanosomal screening, resazurin; type: cell-based; settings: Trypanosoma brucei, mean of triplicate ± SEM
Outline: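 Parasites grown in modified Iscove's medium with compound in triplicate; resazurin added at 48 h and plates read after a further 16 h.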

[2] = test system: S. aureus MRSA; experiment: Broth microdilution MIC, MRSA clinical strain; type: cell-based; settings: Staphylococcus aureus, antibiotic-resistant clinical strain
Outline: (§1)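 MICs were set by CLSI broth microdilution in cation (Ca2+, Mg2+)-adjusted Mueller–Hinton broth, in triplicate. Panel: S. aureus ATCC 25923, MRSA, MSSA, E. faecalis, VRE E. faecium, E. coli ATCC 25925, P. aeruginosa ATCC 27853, A. baumannii ATCC 19606 and ESBL K. pneumoniae ATCC 27736.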

[3] = test system: polyA-polyU; experiment: UV–Vis titration with polyA-polyU (Scatchard); type: binding; settings: for Hypochromic effect H/%, polyA-polyU (from experimental data): footnote e: calculated from experimental data
Outline: (§2)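 Polynucleotides titrated into compound at 1.48 × 10^−5 mol dm^−3 in PBS (I = 0.05 mol dm^−3, pH 7.0), with UV–Vis spectra in 1 cm quartz cells; ctDNA sonicated and filtered, concentration as nucleobases. Ks and n from Scatchard analysis, in some cases only from data at r ≥ 0.1.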

[4] = test system: S. aureus ATCC 25923; experiment: Broth microdilution MIC, S. aureus ATCC 25923; type: cell-based; settings: Staphylococcus aureus, ATCC25923; Table S2
Outline: (§3)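 Growth inhibition is assessed in Mueller–Hinton broth supplemented with calcium and magnesium cations, following the CLSI standard microdilution format. The MIC is reported from three replicate tests.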

[5] = test system: E. faecalis ATCC 29212; experiment: Broth microdilution MIC, E. faecalis ATCC 29212; type: cell-based; settings: Enterococcus faecalis, ATCC29212; Table S2
Outline: as §3

[6] = test system: polyG-polyC (polyC-polyG) (RNA, polymer) G/C; experiment: UV-Vis titration, Scatchard; settings: PBS, I = 0.05 M (Table 1 says I = 0.015 M), cations not specified, I = 0.015 M (Methods: 0.05 M), pH 7, n fixed, per base
[7] = test system: A. baumannii ATCC 19606; experiment: Broth microdilution MIC, A. baumannii ATCC 19606; type: cell-based; settings: Acinetobacter baumannii, ATCC19606; Table S2
Outline: as §3

[8] = test system: K. pneumonia ATCC 700803; experiment: Broth microdilution MIC, K. pneumoniae ATCC 700803; type: cell-based; settings: Klebsiella pneumoniae, ATCC700803; Table S2
Outline: as §3

[9] = test system: calf thymus ctDNA; experiment: UV–Vis titration with ctDNA (Scatchard); type: binding; settings: UV–Vis titration, PBS, pH 7; footnote e: calculated from experimental data
Outline: as §2

[10] = test system: P. aeruginosa ATCC 27853; experiment: Broth microdilution MIC, P. aeruginosa ATCC 27853; type: cell-based; settings: Pseudomonas aeruginosa, ATCC27853; Table S2
Outline: as §3

[11] = test system: S. aureus MSSA; experiment: Broth microdilution MIC, MSSA clinical strain; type: cell-based; settings: Staphylococcus aureus
Outline: as §1

[12] = target: polyC-polyG; experiment: UV–Vis titration with polyC-polyG (Scatchard); type: binding; settings: binding constant, Scatchard, PBS, pH 7
Outline: as §2

[13] = test system: E. faecium VRE; experiment: Broth microdilution MIC, VRE clinical strain; type: cell-based; settings: Enterococcus faecium
Outline: as §1

[14] = test system: Gram-positive and Gram-negative bacteria; experiment: Anti-microbial activity overall (all tested bacteria); type: cell-based; settings: summary over tested strains; read-out: MIC, anti-microbial activities overall
Procedure: The compounds were evaluated for their in vitro anti-bacterial activity against Gram-positive bacteria: S. aureus (ATCC 25923), MRSA, methicillin-sensitive S. aureus (MSSA), E. faecalis, vancomycin-resistant E. faecium (VREF), and Gram-negative bacteria: E. coli (ATCC 25925), P. aeruginosa (ATCC 27853), A. baumannii (ATCC 19606) and ESBL-producing K. pneumoniae (ATCC 27736). Standard broth microdilution method as recommended in guidelines of Clinical and Laboratory Standards Institute[61] ^, [65] ^, [66] was applied and the minimum inhibitory concentration (MIC) of compounds was tested. In short, testing was performed in U-bottomed 96-well sterile plastic microdilution trays (Falcon 3077, Becton Dickinson Labware, Franklin Lakes, NJ) in cation (Ca^2+ and Mg^2+) adjusted Mueller–Hinton broth medium (Becton Dickinson and Co., Cockeysville, MD). All testings were performed in triplicate.

[15] = test system: E. coli ATCC 25925; experiment: Broth microdilution MIC, E. coli ATCC 25925; type: cell-based; settings: Escherichia coli, ATCC25925; Table S2
Outline: as §3

[16] = test system: polyA-polyU (RNA, polymer) A/U; experiment: UV-Vis titration, Scatchard; settings: PBS, pH 7; changes too small for accurate calculation; compound 14.8 µM
[17] = test system: polyA-polyU; experiment: Thermal melting (ΔTm) of polyA-polyU; type: binding
Outline: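 UV melting monitored at 260 nm in 1 cm cuvettes, ligand absorbance subtracted and normalised; ΔTm = Tm(complex) − Tm(free nucleic acid), mean of at least two runs, error ±0.5 °C. Compound tested at r = 0.1, 0.3, 0.5 and 0.7 eq ([compound]/[polynucleotide]) with ctDNA and polyA-polyU.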

[18] = test system: L6 cells (a rat myoblast line); experiment: Cytotoxicity against mammalian cells, resazurin; type: cell-based; settings: L6, 144 h, 6 d incubation
Procedure: Cytotoxicity against mammalian cells was also assessed using microtitre plates. Briefly, L6 cells (a rat myoblast line) were seeded at 1 × 10^4 ml^−1 in 200 µl of growth medium containing different compound concentrations. The plates were then incubated for 6 d at 37 °C and 20 µl resazurin added to each well. After a further 8 h incubation, the fluorescence was determined using a Spectramax plate reader, as outlined above.

[19] = test system: bloodstream form T. brucei (strain 221); settings: read-out: T. brucei IC50 (reference drug), ref [83]; cited from earlier work

| Compound | IC50 [1] [µM] | IC90 [1] [µM] | MIC [2] [µg/mL] | Hypochromic effect H/%, polyA-polyU (from experimental data) [3] | MIC [4] [µg/mL] | MIC [5] [µg/mL] | MIC [7] [µg/mL] | MIC [8] [µg/mL] | Hypochromic effect H/%, ctDNA (from experimental data) [9] | MIC [10] [µg/mL] | MIC [11] [µg/mL] | MIC [13] [µg/mL] | MIC [14] [µg/mL] | MIC [15] [µg/mL] | further results |
| --- | --- | --- | --- | --- | --- | --- | --- | --- | --- | --- | --- | --- | --- | --- | --- |
| c1ccc(-n2cc(COc3ccc(-c4nc5cc(C6=NCCN6)ccc5[nH]4)cc3)nn2)cc1 [Compound 9a] | 7.9 ± 0.4 | 17.2 ± 1.2 | 128 (≈ 294 µM) | 32.7 ^e % | 128 (≈ 294 µM) | 128 (≈ 294 µM) | > 256 | > 256 | 25.7 ^e % | > 256 | 128 (≈ 294 µM) | 128 (≈ 294 µM) | ≥ 128 | 256 (≈ 588 µM) | log Ks [6]: 6.21; log Ks, polyC-polyG [12]: 6.21; binding [16]: weak |
| COc1ccc(-n2cc(COc3ccc(-c4nc5cc(C6=NCCN6)ccc5[nH]4)cc3)nn2)cc1.Cl.Cl [Compound 9b, 5–(4,5-Dihydro-1H-imidazol-2-yl)-2–(4-((1–(4-methoxyphenyl)-1H-1,2,3-triazol-4-yl)methoxy)phenyl)-1H-benz[d]imidazole dihydrochloride] | 1.6 ± 0.4 | 7.3 ± 0.3 | 256 | 31.6 ^e % | 128 | 256 | > 256 | > 256 | 18.9 ^e % | > 256 | 256 | 256 | ≥ 128 | 256 | log Ks, polyA-polyU ([3]; binding constant, Scatchard, PBS, pH 7): 5.46; melting point: 197 to 199 °C; ΔTm, polyA-polyU, r = 0.1 ([17]; r = 0.1, PBS, pH 7): 2.49 °C; ΔTm, polyA-polyU, r = 0.3 ([17]; r = 0.3, first melting midpoint): 2.67 °C; ΔTm, polyA-polyU, r = 0.3, second melting midpoint ([17]; r = 0.3, footnote c: biphasic melting curve): 36.08^c °C; ΔTm, polyA-polyU, r = 0.5 ([17]; r = 0.5, first melting midpoint): 2.92 °C; ΔTm, polyA-polyU, r = 0.5, second melting midpoint ([17]; r = 0.5, footnote c: biphasic melting curve): 40.93^c °C; IC50 [18]: 263 ± 15 µM |
| CC1CS(=O)(=O)CCN1/N=C/c1ccc([N+](=O)[O-])o1 (stereo not shown) [Nifurtimox, nifurtimox] |  |  |  |  |  |  |  |  |  |  |  |  |  |  | IC50 [19]: 4.4 ± 0.7 µM |

— paper PMC6127852 (Journal of Enzyme Inhibition and Medicinal Chemistry, 2018)
